# Source: PubChem BioAssay (NCI)
#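 Growth conditions: 96-well plates. Treatment: test compound, 48 hours, 5 concentrations. Analysis: linear interpolation between bracketing concentrations; unreached endpoints set to highest concentration. Definition used: TGI = concentration required for complete inhibition of growth.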
# Legend:
# Experiment in all cases: NCI anticancer screen, dose series, 48 h
# [1] = system: 786-0 renal
# [2] = system: A498 renal
# [3] = system: A549 NSCLC
# [4] = system: ACHN renal
# [5] = system: BT-549 breast
# [6] = system: CAKI-1 renal
# [7] = system: COLO 205 colon
# [8] = system: DU-145 prostate
# [9] = system: EKVX NSCLC
# [10] = system: HCC-2998 colon
# [11] = system: HCT-116 colon
# [12] = system: HCT-15 colon
# [13] = system: HL-60(TB) leukemia
# [14] = system: HOP-62 NSCLC
# [15] = system: HOP-92 NSCLC
# [16] = system: HS 578T breast
# [17] = system: HT29 colon
# [18] = system: IGROV1 ovarian
# [19] = system: K-562 leukemia
# [20] = system: KM12 colon
# [21] = system: LOX IMVI melanoma
# [22] = system: M14 melanoma
# [23] = system: MALME-3M melanoma
# [24] = system: MCF7 breast
# [25] = system: MDA-MB-231 breast
# [26] = system: MDA-MB-435
# [27] = system: MDA-N
# [28] = system: MOLT-4 leukemia
# [29] = system: NCI-H226 lung
# [30] = system: NCI-H23 lung
# [31] = system: NCI-H460 lung
# [32] = system: NCI-H522 lung
# [33] = system: NCI/ADR-RES ovarian
# [34] = system: OVCAR-3 ovarian
# [35] = system: OVCAR-4 ovarian
# [36] = system: OVCAR-5 ovarian
# [37] = system: OVCAR-8 ovarian
# [38] = system: PC-3 prostate
# [39] = system: RPMI-8226 leukemia
# [40] = system: RXF 393 renal
# [41] = system: SF-268 CNS
# [42] = system: SF-295 CNS
# [43] = system: SF-539 CNS
# [44] = system: SK-MEL-2 melanoma
# [45] = system: SK-MEL-28 melanoma
# [46] = system: SK-MEL-5 melanoma
# [47] = system: SK-OV-3 ovarian
# [48] = system: SN12C renal
# [49] = system: SNB-19 CNS
# [50] = system: SNB-75 CNS
# [51] = system: SR leukemia
# [52] = system: SW-620 colon
# [53] = system: T-47D breast
# [54] = system: TK-10 renal
# [55] = system: U251 CNS
# [56] = system: UACC-257 melanoma
# [57] = system: UACC-62 melanoma
# [58] = system: UO-31 renal
# [59] = system: CCRF-CEM leukemia
structure (smiles),measurement,setting,value
Nc1c2c(nc3ccccc13)CCCc1ccccc1-2,TGI,[1],24.9 µM
same,TGI,[2],22 µM
same,TGI,[3],49 µM
same,TGI,[4],23 µM
same,TGI,[5],> 100 µM
same,TGI,[6],40.9 µM
same,TGI,[7],24.4 µM
same,TGI,[8],80.3 µM
same,TGI,[9],38.9 µM
same,TGI,[10],4.61 µM
same,TGI,[11],19.1 µM
same,TGI,[12],35.5 µM
same,TGI,[13],21.4 µM
same,TGI,[14],28 µM
same,TGI,[15],22.6 µM
same,TGI,[16],52 µM
same,TGI,[17],22.5 µM
same,TGI,[18],26.3 µM
same,TGI,[19],> 100 µM
same,TGI,[20],31.2 µM
same,TGI,[21],22.1 µM
same,TGI,[22],21.6 µM
same,TGI,[23],33.5 µM
same,TGI,[24],29.2 µM
same,TGI,[25],19.8 µM
same,TGI,[26],24.7 µM
same,TGI,[27],17.2 µM
same,TGI,[28],> 100 µM
same,TGI,[29],45.4 µM
same,TGI,[30],> 100 µM
same,TGI,[31],14.5 µM
same,TGI,[32],37.2 µM
same,TGI,[33],69.7 µM
same,TGI,[34],> 100 µM
same,TGI,[35],84.8 µM
same,TGI,[36],34.6 µM
same,TGI,[37],30.8 µM
same,TGI,[38],40.5 µM
same,TGI,[39],30.4 µM
same,TGI,[40],24.7 µM
same,TGI,[41],38.4 µM
same,TGI,[42],24 µM
same,TGI,[43],25.9 µM
same,TGI,[44],27.1 µM
same,TGI,[45],25 µM
same,TGI,[46],21 µM
same,TGI,[47],> 100 µM
same,TGI,[48],39.5 µM
same,TGI,[49],52.9 µM
same,TGI,[50],26.6 µM
same,TGI,[51],> 100 µM
same,TGI,[52],26.6 µM
same,TGI,[53],37.5 µM
same,TGI,[54],18.8 µM
same,TGI,[55],24.7 µM
same,TGI,[56],27.1 µM
same,TGI,[57],20.8 µM
same,TGI,[58],26.3 µM
NC(CO)C(=O)NCC(=O)O (configuration not stated),TGI,[1],> 100 µM
same,TGI,[2],> 100 µM
same,TGI,[3],> 100 µM
same,TGI,[4],> 100 µM
same,TGI,[5],> 100 µM
same,TGI,[6],> 100 µM
same,TGI,[59],> 100 µM
same,TGI,[7],> 100 µM
same,TGI,[8],> 100 µM
same,TGI,[9],> 100 µM
same,TGI,[10],> 100 µM
same,TGI,[11],> 100 µM
same,TGI,[12],> 100 µM
same,TGI,[13],> 100 µM
same,TGI,[14],> 100 µM
same,TGI,[15],> 100 µM
same,TGI,[16],> 100 µM
same,TGI,[17],> 100 µM
same,TGI,[18],> 100 µM
same,TGI,[19],> 100 µM
same,TGI,[20],> 100 µM
same,TGI,[21],> 100 µM
same,TGI,[22],> 100 µM
same,TGI,[23],> 100 µM
same,TGI,[24],> 100 µM
same,TGI,[25],> 100 µM
same,TGI,[26],> 100 µM
same,TGI,[27],> 100 µM
same,TGI,[28],> 100 µM
same,TGI,[29],> 100 µM
same,TGI,[30],> 100 µM
same,TGI,[31],> 100 µM
same,TGI,[32],> 100 µM
same,TGI,[33],> 100 µM
same,TGI,[34],> 100 µM
same,TGI,[35],> 100 µM
same,TGI,[36],> 100 µM
same,TGI,[37],> 100 µM
same,TGI,[38],> 100 µM
same,TGI,[39],> 100 µM
same,TGI,[40],> 100 µM
same,TGI,[41],> 100 µM
same,TGI,[42],> 100 µM
same,TGI,[43],> 100 µM
same,TGI,[44],> 100 µM
same,TGI,[45],> 100 µM
same,TGI,[46],> 100 µM
same,TGI,[47],> 100 µM
same,TGI,[48],> 100 µM
same,TGI,[49],> 100 µM
same,TGI,[50],> 100 µM
same,TGI,[51],> 100 µM
same,TGI,[52],> 100 µM
same,TGI,[53],> 100 µM
same,TGI,[54],> 100 µM
same,TGI,[55],> 100 µM
same,TGI,[56],> 100 µM
same,TGI,[57],> 100 µM
same,TGI,[58],> 100 µM
